For 25 compounds, inhibition and IC50 results are on record in US7064120B2, “Tricyclic pyridyl carboxamides and derivatives thereof tocolytic oxytocin receptor antagonists” (Wyeth, priority 2001, dated 2006).

In one test the target is T1, human vasopressin V2 receptor subtype (Homo sapiens, UniProt P30518).
T1 construct: host or cells: CHO cells, stably transfected (pZeoSV vector)
T1 sequence (P30518 whole entry): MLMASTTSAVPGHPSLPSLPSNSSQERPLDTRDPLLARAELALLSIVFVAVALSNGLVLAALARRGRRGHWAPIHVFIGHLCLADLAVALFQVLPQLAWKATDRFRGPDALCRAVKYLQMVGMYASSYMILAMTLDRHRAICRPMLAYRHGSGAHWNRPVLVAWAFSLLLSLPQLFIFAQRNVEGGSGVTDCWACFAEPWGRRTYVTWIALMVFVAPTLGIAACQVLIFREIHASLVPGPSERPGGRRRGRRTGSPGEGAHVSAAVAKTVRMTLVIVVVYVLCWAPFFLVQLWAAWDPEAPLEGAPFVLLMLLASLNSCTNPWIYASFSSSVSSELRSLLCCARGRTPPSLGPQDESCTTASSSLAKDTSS
Put plainly: Vasopressin binding in CHO cell membranes expressing human vasopressin V2 subtype receptors ([3H]arginine vasopressin radioligand binding). The settings on record: 100 nM. An outline of the steps:
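Values are IC50 in nM or percent inhibition at a stated concentration, from scintillation counts after filtration. Binding ran 60 min at room temperature: [3H]arginine vasopressin, human V2-transfected CHO membranes (25 to 50 μg protein/well), pH 7.4 Tris-HCl buffer containing MgCl2, BSA, protease inhibitors.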
Broadly, the inhibition is the drop in the measured response relative to a control, in per cent. In the case of `COc1cc(C(=O)N2Cc3ccc(C(=O)N4CCN(c5ccccn5)CC4)n3Cc3ccccc32)ccc1-c1ccccc1C` [Example 80, {10-[(2-Methoxy-2′-methyl-[1,1′-biphenyl]-4-yl)carbonyl]-10,11-dihydro-5H-pyrrolo[2,1-c][1,4]benzodiazepin-3-yl}[4-(2-pyridinyl)-1-piperazinyl]methanone], the inhibition at 0.1 µM was determined as 8%.

Consider `COc1cc(-c2ccccc2C)c(Cl)cc1C(=O)N1Cc2ccc(C(=O)N3CCN(c4ccccn4)CC3)n2Cc2ccccc21` [Example 81, {10-[(6-Chloro-3-methoxy-2′-methyl-[1,1′-biphenyl]-4-yl)carbonyl]-10,11-dihydro-5H-pyrrolo[2,1-c][1,4]benzodiazepin-3-yl}[4-(2-pyridinyl)-1-piperazinyl]methanone], for which the inhibition at 0.1 µM came to 5%.

Take `COc1cccc(-c2cc(OC)c(C(=O)N3Cc4ccc(C(=O)N5CCN(c6ccccn6)CC5)n4Cc4ccccc43)cc2Cl)c1` [Example 82, {10-[(6-Chloro-3,3′-dimethoxy-[1,1′-biphenyl]-4-yl)carbonyl]-10,11-dihydro-5H-pyrrolo[2,1-c][1,4]benzodiazepin-3-yl}[4-(2-pyridinyl)-1-piperazinyl]methanone]: the inhibition at 0.1 µM was determined as 8%. Same read-out and setting: the same measure for `COc1ccccc1-c1ccc(C(=O)N2Cc3ccc(C(=O)N4CCN(c5ccccn5)CC4)n3Cc3ccccc32)cc1OC` [Example 84, {10-[(2,2′-Dimethoxy-[1,1′-biphenyl]-4-yl)carbonyl]-10,11-dihydro-5H-pyrrolo[2,1-c][1,4]benzodiazepin-3-yl}[4-(2-pyridinyl)-1-piperazinyl]methanone]: 14%; for `COc1cccc(-c2ccc(C(=O)N3Cc4ccc(C(=O)N5CCN(c6ccccn6)CC5)n4Cc4ccccc43)cc2OC)c1` [Example 85, {10-[(2,3′-Dimethoxy-[1,1′-biphenyl]-4-yl)carbonyl]-10,11-dihydro-5H-pyrrolo[2,1-c][1,4]benzodiazepin-3-yl}[4-(2-pyridinyl)-1-piperazinyl]methanone]: 5%; for `O=C(c1ccc2n1Cc1ccccc1N(C(=O)c1ccc(-c3cccc4ccccc34)cc1Cl)C2)N1CCN(c2ccccn2)CC1` [Example 86, {10-[2-Chloro-4-(naphthalen-1-yl)benzoyl]-10,11-dihydro-5H-pyrrolo[2,1-c][1,4]benzodiazepin-3-yl}[4-(2-pyridinyl)-1-piperazinyl]methanone]: 11%.

For the compound `Cc1cc(C(=O)N2Cc3ccc(C(=O)N4CCN(c5ccccn5)CC4)n3Cc3ccccc32)ccc1-c1ccccc1C(F)(F)F` [Example 87, (10-{[2-Methyl-2′-trifluoromethyl-[1,1′-biphenyl]-4-yl]carbonyl}-10,11-dihydro-5H-pyrrolo[2,1-c][1,4]benzodiazepin-3-yl)[4-(2-pyridinyl)-1-piperazinyl]methanone], the inhibition at 0.1 µM turned out to be 4%. The same measure, in the same setting: the value for `COc1ccccc1-c1ccc(C(=O)N2Cc3ccc(C(=O)NCc4ccncc4)n3Cc3ccccc32)cc1C` [Example 88, 10-[(2′-Methoxy-2-methyl-[1,1′-biphenyl]-4-yl)carbonyl]-N-(4-pyridinylmethyl)-10,11-dihydro-5H-pyrrolo[2,1-c][1,4]benzodiazepine-3-carboxamide] was 13%.

For `Cc1ccccc1-c1ccc(C(=O)N2Cc3ccc(C(=O)NCc4ccncc4)n3Cc3ccccc32)cc1C` [Example 89, 10-[(2,2′-Dimethyl-[1,1′-biphenyl]-4-yl)carbonyl]-N-(4-pyridinylmethyl)-10,11-dihydro-5H-pyrrolo[2,1-c][1,4]benzodiazepine-3-carboxamide], the inhibition at 0.1 µM worked out at 15%.

Consider `COc1cccc(-c2ccc(C(=O)N3Cc4ccc(C(=O)NCc5ccncc5)n4Cc4ccccc43)cc2C)c1` [Example 90, 10-[(3′-Methoxy-2-methyl-[1,1′-biphenyl]-4-yl)carbonyl]-N-(4-pyridinylmethyl)-10,11-dihydro-5H-pyrrolo[2,1-c][1,4]benzodiazepine-3-carboxamide], for which the inhibition at 0.1 µM worked out at 11%. With `COc1ccccc1-c1ccc(C(=O)N2Cc3ccc(C(=O)NCc4ccncc4)n3Cc3ccccc32)cc1` [Example 91, 10-[(2′-Methoxy-[1,1′-biphenyl]-4-yl)carbonyl]-N-(4-pyridinylmethyl)-10,11-dihydro-5H-pyrrolo[2,1-c][1,4]benzodiazepine-3-carboxamide], the inhibition at 0.1 µM came out at 10%. On the same count and under the same terms, the value for `Cc1ccccc1-c1ccc(C(=O)N2Cc3ccc(C(=O)NCc4ccncc4)n3Cc3ccccc32)cc1` [Example 92, 10-[(2′-Methyl-[1,1′-biphenyl]-4-yl)carbonyl]-N-(4-pyridinylmethyl)-10,11-dihydro-5H-pyrrolo[2,1-c][1,4]benzodiazepine-3-carboxamide] was 0%; that for `COc1cc(C(=O)N2Cc3ccc(C(=O)NCc4ccncc4)n3Cc3ccccc32)ccc1-c1ccccc1C` [Example 93, 10-[(2-Methoxy-2′-methyl-[1,1′-biphenyl]-4-yl)carbonyl]-N-(4-pyridinylmethyl)-10,11-dihydro-5H-pyrrolo[2,1-c][1,4]benzodiazepine-3-carboxamide] was 27%; that for `COc1cc(-c2ccccc2C)c(Cl)cc1C(=O)N1Cc2ccc(C(=O)NCc3ccncc3)n2Cc2ccccc21` [Example 94, 10-[(6-Chloro-3-methoxy-2′-methyl-[1,1′-biphenyl]-4-yl)carbonyl]-N-(4-pyridinylmethyl)-10,11-dihydro-5H-pyrrolo[2,1-c][1,4]benzodiazepine-3-carboxamide] was 5%. On the same count and under the same terms, the value for `COc1cccc(-c2cc(OC)c(C(=O)N3Cc4ccc(C(=O)NCc5ccncc5)n4Cc4ccccc43)cc2Cl)c1` [Example 95, 10-[(6-Chloro-3,3′-dimethoxy-[1,1′-biphenyl]-4-yl)carbonyl]-N-(4-pyridinylmethyl)-10,11-dihydro-5H-pyrrolo[2,1-c][1,4]benzodiazepine-3-carboxamide] was -1%; that for `COc1cc(C(=O)N2Cc3ccc(C(=O)NCc4ccncc4)n3Cc3ccccc32)ccc1-c1cccc2ccccc12` [Example 96, 10-[3-Methoxy-4-(naphthalen-1-yl)benzoyl]-N-(4-pyridinylmethyl)-10,11-dihydro-5H-pyrrolo[2,1-c][1,4]benzodiazepine-3-carboxamide] was 22%. Same read-out and setting: the value for `COc1ccccc1-c1ccc(C(=O)N2Cc3ccc(C(=O)NCc4ccncc4)n3Cc3ccccc32)cc1OC` [Example 97, 10-[(2,2′-Dimethoxy-[1,1′-biphenyl]-4-yl)carbonyl]-N-(4-pyridinylmethyl)-10,11-dihydro-5H-pyrrolo[2,1-c][1,4]benzodiazepine-3-carboxamide] was 16%; that for `O=C(NCc1ccncc1)c1ccc2n1Cc1ccccc1N(C(=O)c1ccc(-c3cccc4ccccc34)cc1Cl)C2` [Example 99, 10-[2-Chloro-4-(naphthalen-1-yl)benzoyl]-N-(4-pyridinylmethyl)-10,11-dihydro-5H-pyrrolo[2,1-c][1,4]benzodiazepine-3-carboxamide] was 12%.

Take `Cc1cc(C(=O)N2Cc3ccc(C(=O)NCc4ccncc4)n3Cc3ccccc32)ccc1-c1ccccc1C(F)(F)F` [Example 100, 10-{[2-Methyl-2′-trifluoromethyl-[1,1′-biphenyl]-4-yl]carbonyl}-N-(4-pyridinylmethyl)-10,11-dihydro-5H-pyrrolo[2,1-c][1,4]benzodiazepine-3-carboxamide]: the inhibition at 0.1 µM amounted to 0%. Take `COc1ccccc1-c1ccc(C(=O)N2Cc3ccc(C(=O)N(C)Cc4cccnc4)n3Cc3ccccc32)cc1` [Example 104, 10-[(2′-Methoxy-[1,1′-biphenyl]-4-yl)carbonyl]-N-methyl-N-(3-pyridinylmethyl)-10,11-dihydro-5H-pyrrolo[2,1-c][1,4]benzodiazepine-3-carboxamide]: the inhibition at 0.1 µM was 23%. Still for that read-out and setting: the value for `Cc1ccccc1-c1ccc(C(=O)N2Cc3ccc(C(=O)N(C)Cc4cccnc4)n3Cc3ccccc32)cc1` [Example 105, N-Methyl-10-[(2′-methyl-[1,1′-biphenyl]-4-yl)carbonyl]-N-(3-pyridinylmethyl)-10,11-dihydro-5H-pyrrolo[2,1-c][1,4]benzodiazepine-3-carboxamide] was 6%.

Staying with this test, now noted: value in parentheses.
Usually IC50 stands for the midpoint of a concentration-inhibition curve. On to `COc1ccccc1-c1ccc(C(=O)N2Cc3ccc(C(=O)N(C)Cc4cccnc4)n3Cc3ccccc32)cc1C` [Example 101, 10-[(2′-Methoxy-2-methyl-[1,1′-biphenyl]-4-yl)carbonyl]-N-methyl-N-(3-pyridinylmethyl)-10,11-dihydro-5H-pyrrolo[2,1-c][1,4]benzodiazepine-3-carboxamide], for which the IC50 worked out at 270 nM. Same read-out and setting: the same measure for `COc1cccc(-c2ccc(C(=O)N3Cc4ccc(C(=O)N(C)Cc5cccnc5)n4Cc4ccccc43)cc2C)c1` [Example 102, 10-[(3′-Methoxy-2-methyl-[1,1′-biphenyl]4-yl)carbonyl]-N-methyl-N-(3-pyridinyImethyl)-10,11-dihydro-5H-pyrrolo[2,1-c][1,4]benzodiazepine-3-carboxamide]: 534 nM.

Turning to `COc1ccccc1-c1ccc(C(=O)N2Cc3ccc(C(=O)N(C)Cc4cccnc4)n3Cc3ccccc32)cc1OC` [Example 103, 10-[(2,2′-Dimethoxy-[1,1′-biphenyl]-4-yl)carbonyl]-N-methyl-N-(3-pyridinylmethyl)-10,11-dihydro-5H-pyrrolo[2,1-c][1,4]benzodiazepine-3-carboxamide], the half-inhibitory concentration (IC50) came to 318 nM. On the same count and under the same terms, the same measure for `Cc1cc(C(=O)N2Cc3ccc(C(=O)N(C)Cc4cccnc4)n3Cc3ccccc32)ccc1-c1ccccc1C(F)(F)F` [Example 112, N-Methyl-10-{[2-methyl-2′-trifluoromethyl-[1,1′-biphenyl]-4-yl]carbonyl}-N-(3-pyridinylmethyl)-10,11-dihydro-5H-pyrrolo[2,1-c][1,4]benzodiazepine-3-carboxamide]: 1130 nM.
